Data reported in patent publication US20240208992A1, “MACROCYCLES AS CFTR MODULATORS” (Idorsia Pharmaceuticals Ltd, priority 2021, published 2024).

Target: human F508del-CFTR (Homo sapiens, UniProt P13569, DEL508-508)
Assay: F508del-CFTR cell surface expression (corrector activity), DiscoveRx ß-galactosidase complementation chemiluminescence assay in recombinant U2OS cell line;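 further: U2OS cells co-expressing ProLink-tagged F508del-CFTR and a membrane-anchored enzyme acceptor, where more surface CFTR restores β-galactosidase activity measured by chemiluminescence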
Settings: for EC50: EC50, F508del-CFTR cell surface expression, U2OS cells, 16h compound incubation, geomean values; for Emax: in relation to Emax of corrector lumacaftor (=100%), arithmetic mean values

human F508del-CFTR, sequence (P13569 with tags, fused parts or gaps DEL508-508): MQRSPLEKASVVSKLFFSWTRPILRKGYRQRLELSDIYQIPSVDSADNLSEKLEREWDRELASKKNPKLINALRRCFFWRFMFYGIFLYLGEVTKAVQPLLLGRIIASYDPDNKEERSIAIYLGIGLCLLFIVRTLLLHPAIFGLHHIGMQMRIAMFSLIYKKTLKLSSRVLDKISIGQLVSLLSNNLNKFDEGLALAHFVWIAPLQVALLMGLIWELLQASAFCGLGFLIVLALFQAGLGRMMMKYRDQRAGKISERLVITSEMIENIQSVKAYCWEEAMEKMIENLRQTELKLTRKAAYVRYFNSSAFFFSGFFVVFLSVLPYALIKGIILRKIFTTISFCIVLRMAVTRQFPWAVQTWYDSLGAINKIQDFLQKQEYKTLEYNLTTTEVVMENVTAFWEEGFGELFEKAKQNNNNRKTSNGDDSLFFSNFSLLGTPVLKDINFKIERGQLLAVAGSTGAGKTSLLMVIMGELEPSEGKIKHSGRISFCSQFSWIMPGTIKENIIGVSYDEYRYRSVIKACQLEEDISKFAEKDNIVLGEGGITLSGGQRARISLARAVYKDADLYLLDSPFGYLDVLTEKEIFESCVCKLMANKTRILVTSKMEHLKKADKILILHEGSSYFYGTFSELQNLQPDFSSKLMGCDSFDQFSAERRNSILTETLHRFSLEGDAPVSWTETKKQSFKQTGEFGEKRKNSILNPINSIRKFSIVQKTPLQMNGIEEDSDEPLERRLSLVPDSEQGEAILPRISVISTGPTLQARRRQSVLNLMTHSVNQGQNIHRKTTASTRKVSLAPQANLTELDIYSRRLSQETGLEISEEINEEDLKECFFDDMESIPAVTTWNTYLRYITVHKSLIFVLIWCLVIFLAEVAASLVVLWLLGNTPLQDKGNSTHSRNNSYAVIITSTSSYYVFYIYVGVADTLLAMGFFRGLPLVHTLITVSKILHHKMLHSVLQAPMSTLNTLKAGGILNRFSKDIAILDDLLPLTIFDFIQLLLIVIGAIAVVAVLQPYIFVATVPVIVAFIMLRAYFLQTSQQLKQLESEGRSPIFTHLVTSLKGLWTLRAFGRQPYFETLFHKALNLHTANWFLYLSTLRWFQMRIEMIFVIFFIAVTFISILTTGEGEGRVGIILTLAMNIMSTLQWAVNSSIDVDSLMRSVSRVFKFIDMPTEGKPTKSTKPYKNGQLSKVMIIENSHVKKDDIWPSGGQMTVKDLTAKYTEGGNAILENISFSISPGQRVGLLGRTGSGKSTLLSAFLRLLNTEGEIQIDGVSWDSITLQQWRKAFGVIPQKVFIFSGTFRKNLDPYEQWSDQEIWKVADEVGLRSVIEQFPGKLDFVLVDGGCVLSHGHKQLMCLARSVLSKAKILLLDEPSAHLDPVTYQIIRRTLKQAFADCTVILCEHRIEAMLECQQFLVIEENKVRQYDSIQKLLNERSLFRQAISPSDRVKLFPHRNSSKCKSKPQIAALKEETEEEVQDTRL

| SMILES | EC50 [nM] | Emax (U2OS) [%] | Emax [%] |
| --- | --- | --- | --- |
| COc1cccc(CCNC(=O)[C@@H]2CC(=O)N(C)[C@@H](CC(C)C)C(=O)N(C)CC(=O)N[C@H](Cc3ccccc3)COc3ccc4ncc(F)cc4c3C(=O)N2)c1 [Example 507, (3S,7S,13R)-13-benzyl-20-fluoro-7-isobutyl-N-(3-methoxyphenethyl)-6,9-dimethyl-1,5,8,11-tetraoxo-1,2,3,4,5,6,7,8,9,10,11,12,13,14-tetradecahydro-[1]oxa[4,7,10,14]tetraazacycloheptadecino[16,17-f]quinoline-3-carboxamide] | 469 | 337 |  |
| Cc1cc(CCNC(=O)[C@@H]2CC(=O)N(C)[C@@H](CC(C)C)C(=O)N(C)[C@H](C3CC3)C(=O)N[C@H](Cc3ccccc3)COc3ccc4ccccc4c3C(=O)N2)on1 [Example 508, (3S,7S,10R,13R)-13-benzyl-10-cyclopropyl-7-isobutyl-6,9-dimethyl-N-(2-(3-methylisoxazol-5-yl)ethyl)-1,5,8,11-tetraoxo-1,2,3,4,5,6,7,8,9,10,11,12,13,14-tetradecahydronaphtho[1,2-p][1]oxa[4,7,10,14]tetraazacycloheptadecine-3-carboxamide] | 382 | 378 |  |
| COc1cccc(CCNC(=O)[C@@H]2CC(=O)N(C)[C@@H](CC(C)C)C(=O)N3CCN(c4ccccc4)C[C@@H]3C(=O)N[C@H](Cc3ccccc3)COc3cnc4ccccc4c3C(=O)N2)c1 [Example 509, (9S,13S,19aR,22R)-22-benzyl-13-isobutyl-N-(3-methoxyphenethyl)-12-methyl-7,11,14,20-tetraoxo-18-phenyl-7,8,9,10,11,12,13,14,17,18,19,19a,20,21,22,23-hexadecahydro-16H-pyrazino[2′,11:6,7][1]oxa[4,7,10,14]tetraazacycloheptadecino[17,16-c]quinoline-9-carboxamide] | 75 | 327 |  |
| Cc1cc(CCNC(=O)[C@@H]2CC(=O)N(C)[C@@H](CC(C)C)C(=O)N3CCN(c4ccccc4)C[C@@H]3C(=O)N[C@H](Cc3ccccc3)COc3cnc4ccccc4c3C(=O)N2)on1 [Example 510, (9S,13S,19aR,22R)-22-benzyl-13-isobutyl-12-methyl-N-(2-(3-methylisoxazol-5-yl)ethyl)-7,11,14,20-tetraoxo-18-phenyl-7,8,9,10,11,12,13,14,17,18,19,19a,20,21,22,23-hexadecahydro-16H-pyrazino[2′,11:6,7][1]oxa[4,7,10,14]tetraazacycloheptadecino[17,16-c]quinoline-9-carboxamide] | 108 | 256 |  |
| COc1nccc2c1C(=O)N[C@H](C(=O)NCCc1nc(C3CC3)no1)CC(=O)N(C)[C@@H](CC(C)C)C(=O)N1CCCC[C@@H]1C(=O)N[C@H](Cc1ccccc1)CO2 [Example 511, (7S,11S,17aR,20R)-20-benzyl-N-(2-(3-cyclopropyl-1,2,4-oxadiazol-5-yl)ethyl)-11-isobutyl-4-methoxy-10-methyl-5,9,12,18-tetraoxo-5,6,7,8,9,10,11,12,15,16,17,17a,18,19,20,21-hexadecahydro-14H-dipyrido[2,1-f:3′,4′-p][1]oxa[4,7,10,14]tetraazacycloheptadecine-7-carboxamide] | 624 | 314 |  |
| COc1cccc(CCNC(=O)[C@@H]2CC(=O)N(C)[C@@H](CC(C)C)C(=O)N(C)CC(=O)N[C@H](Cc3ccccc3)COc3nccc(OC)c3C(=O)N2)c1 [Example 513, (3R,9S,13S)-3-benzyl-9-isobutyl-16-methoxy-N-(3-methoxyphenethyl)-7,10-dimethyl-5,8,11,15-tetraoxo-2,3,4,5,6,7,8,9,10,11,12,13,14,15-tetradecahydropyrido[3,2-p][1]oxa[4,7,10,14]tetraazacycloheptadecine-13-carboxamide] | 815 | 169 |  |
| CC(C)C[C@H]1C(=O)N2CCCC[C@H]2C(=O)N[C@H](Cc2ccccc2)COc2cnc3ccc(F)cc3c2C(=O)N[C@H](C(=O)NCCc2noc(C3CC3)n2)CC(=O)N1C [Example 520, (9S,13S,19aS,22R)-22-benzyl-N-(2-(5-cyclopropyl-1,2,4-oxadiazol-3-yl)ethyl)-5-fluoro-13-isobutyl-12-methyl-7,11,14,20-tetraoxo-7,8,9,10,11,12,13,14,17,18,19,19a,20,21,22,23-hexadecahydro-16H-pyrido[2′,11:6,7][1]oxa[4,7,10,14]tetraazacycloheptadecino[17,16-c]quinoline-9-carboxamide] | 345 | 155 |  |

Now from value to compound:

| EC50 [nM] | Emax (U2OS) [%] | Emax [%] | SMILES |
| --- | --- | --- | --- |
| 300 | 316 |  | COc1nccc2c1C(=O)N[C@H](C(=O)NCCc1cc(C3CC3)on1)CC(=O)N(C)[C@@H](CC(C)C)C(=O)N1CCCC[C@@H]1C(=O)N[C@H](Cc1ccccc1)CO2 [Example 512, (7S,11S,17aR,20R)-20-benzyl-N-(2-(5-cyclopropylisoxazol-3-yl)ethyl)-11-isobutyl-4-methoxy-10-methyl-5,9,12,18-tetraoxo-5,6,7,8,9,10,11,12,15,16,17,17a,18,19,20,21-hexadecahydro-14H-dipyrido[2,1-f:3′,4′-p][1]oxa[4,7,10,14]tetraazacycloheptadecine-7-carboxamide] |
| 170 | 304 |  | CC(C)C[C@H]1C(=O)N2CCCC[C@@H]2C(=O)N[C@H](Cc2ccccc2)COc2ccc3ncccc3c2C(=O)N[C@H](C(=O)NCCc2cc(C3CC3)no2)CC(=O)N1C [Example 514, (9S,13S,19aR,22R)-22-benzyl-N-(2-(3-cyclopropylisoxazol-5-yl)ethyl)-13-isobutyl-12-methyl-7,11,14,20-tetraoxo-7,8,9,10,11,12,13,14,17,18,19,19a,20,21,22,23-hexadecahydro-16H-pyrido[2′,11:6,7][1]oxa[4,7,10,14]tetraazacycloheptadecino[16,17-f]quinoline-9-carboxamide] |
| 986 | 222 |  | COc1cc2c(cn1)OC[C@@H](Cc1ccccc1)NC(=O)[C@H]1CCCCN1C(=O)[C@H](CC(C)C)N(C)C(=O)C[C@@H](C(=O)NCCc1cc(C3CC3)no1)NC2=O [Example 517, (7S,11S,17aR,20R)-20-benzyl-N-(2-(3-cyclopropylisoxazol-5-yl)ethyl)-11-isobutyl-3-methoxy-10-methyl-5,9,12,18-tetraoxo-5,6,7,8,9,10,11,12,15,16,17,17a,18,19,20,21-hexadecahydro-14H-dipyrido[2,1-f:2′,3′-p][1]oxa[4,7,10,14]tetraazacycloheptadecine-7-carboxamide] |
| 655 |  | 189 | COc1cc2c(cn1)OC[C@@H](Cc1ccccc1)NC(=O)[C@H]1CCCCN1C(=O)[C@H](CC(C)C)N(C)C(=O)C[C@@H](C(=O)NCCc1cc(C3CC3)on1)NC2=O [Example 518, (7S,11S,17aR,20R)-20-benzyl-N-(2-(5-cyclopropylisoxazol-3-yl)ethyl)-11-isobutyl-3-methoxy-10-methyl-5,9,12,18-tetraoxo-5,6,7,8,9,10,11,12,15,16,17,17a,18,19,20,21-hexadecahydro-14H-dipyrido[2,1-f:2′,3′-p][1]oxa[4,7,10,14]tetraazacycloheptadecine-7-carboxamide] |
| 184 | 332 |  | CC(C)C[C@H]1C(=O)N(C)C2(CC2)C(=O)N[C@H](Cc2ccccc2)COc2cnc3ccc(F)cc3c2C(=O)N[C@H](C(=O)NCCc2cc(C3CC3)no2)CC(=O)N1C [Example 519, (3′S,7′S,13′R)-13′-benzyl-N-(2-(3-cyclopropylisoxazol-5-yl)ethyl)-20′-fluoro-7′-isobutyl-6′,9′-dimethyl-1′,5′,8′,11′-tetraoxo-2′,3′,4′,5′,6′,7′,8′,9′,11′,12′,13′,14′-dodecahydro-1′H-spiro[cyclopropane-1,10′-[1]oxa[4,7,10,14]tetraazacycloheptadecino[17,16-c]quinoline]-3′-carboxamide] |
| 433 | 191 |  | CC(C)C[C@H]1C(=O)N2CCCC[C@H]2C(=O)N[C@H](Cc2ccccc2)COc2cnc3ccc(F)cc3c2C(=O)N[C@H](C(=O)NCCc2nc(C3CC3)no2)CC(=O)N1C [Example 521, (9S,13S,19aS,22R)-22-benzyl-N-(2-(3-cyclopropyl-1,2,4-oxadiazol-5-yl)ethyl)-5-fluoro-13-isobutyl-12-methyl-7,11,14,20-tetraoxo-7,8,9,10,11,12,13,14,17,18,19,19a,20,21,22,23-hexadecahydro-16H-pyrido[2′,1′:6,7][1]oxa[4,7,10,14]tetraazacycloheptadecino[17,16-c]quinoline-9-carboxamide] |
| 204 | 237 |  | CC(C)C[C@H]1C(=O)N2CCCC[C@H]2C(=O)N[C@H](Cc2ccccc2)COc2cnc3c(F)cccc3c2C(=O)N[C@H](C(=O)NCCc2ccc(-n3nccn3)cc2)CC(=O)N1C [Example 522, (9S,13S,19aR,22R)-N-(4-(2H-1,2,3-triazol-2-yl)phenethyl)-22-benzyl-3-fluoro-13-isobutyl-12-methyl-7,11,14,20-tetraoxo-7,8,9,10,11,12,13,14,17,18,19,19a,20,21,22,23-hexadecahydro-16H-pyrido[2′,1′:6,7][1]oxa[4,7,10,14]tetraazacycloheptadecino[17,16-c]quinoline-9-carboxamide] |
| 483 | 352 |  | COc1nccc2c1C(=O)N[C@H](C(=O)NCCc1cc(C3CC3)no1)CC(=O)N(C)[C@@H](CC(C)C)C(=O)N1CCCC[C@@H]1C(=O)N[C@H](Cc1ccccc1)CO2 [Example 523, (7S,11S,17aR,20R)-20-benzyl-N-(2-(3-cyclopropylisoxazol-5-yl)ethyl)-11-isobutyl-4-methoxy-10-methyl-5,9,12,18-tetraoxo-5,6,7,8,9,10,11,12,15,16,17,17a,18,19,20,21-hexadecahydro-14H-dipyrido[2,1-f:3′,4′-p][1]oxa[4,7,10,14]tetraazacycloheptadecine-7-carboxamide] |
